In BigSolDB 2.1:

C=C1CC[C@H](O)C/C1=C/C=C1\CCC[C@]2(C)[C@@H]([C@H](C)CCCC(C)C)CC[C@@H]12
solubility (mole fraction)
Details | in acetone | in acetonitrile | in ethanol | in ethyl acetate | in methanol | in n-propanol
248.2 K | 0.00611 | 7.61e-05 | 0.0532 | 0.0219 | 0.00204 | 0.0647
253.2 K | 0.00805 | 9.25e-05 | 0.0646 | 0.0287 | 0.00249 | 0.0873
258.2 K | 0.0106 | 0.000133 | 0.0796 | 0.0366 | 0.00337 | 0.111
263.2 K | 0.0143 | 0.00016 | 0.0965 | 0.0478 | 0.0046 | 0.136
268.2 K | 0.0192 | 0.000252 | 0.116 | 0.0639 | 0.00625 | 0.163
273.2 K | 0.028 | 0.000311 | 0.14 | 0.0883 | 0.00993 | 0.193
